# Data taken from publication PMC3711794 (Molecular cancer therapeutics, 2012).
# Non-standard residues stand in square brackets, D forms with d. Residues, ends and D or L forms follow the SMILES beside them. pT = C[C@@H](OP(=O)(O)O)[C@H](N)C(=O)O
# Legend:
# PLK3 PBD (335–646) = biological target: T1, PLK3 PBD (335–646) (Homo sapiens, UniProt Q9H4B4); assay: Fluorescence polarization competitive binding assay, PLK3 PBD
# T1 sequence (Q9H4B4 335-646): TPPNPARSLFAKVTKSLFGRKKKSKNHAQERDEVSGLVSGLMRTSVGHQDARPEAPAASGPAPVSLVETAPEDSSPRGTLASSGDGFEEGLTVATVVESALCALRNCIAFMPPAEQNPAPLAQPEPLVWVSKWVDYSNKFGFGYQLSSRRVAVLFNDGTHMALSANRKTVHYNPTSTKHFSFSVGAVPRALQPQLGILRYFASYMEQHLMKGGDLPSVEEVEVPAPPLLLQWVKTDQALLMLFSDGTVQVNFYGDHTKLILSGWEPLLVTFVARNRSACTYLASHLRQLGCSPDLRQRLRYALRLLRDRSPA
# HeLa-H2B-GFP cells [1] = assay: Aberrant prometaphase/metaphase analysis after QQ transfection; type: cell-based; details: for aberrant prometaphase/metaphase cells: controls <10%
# PLK1 = details: ref [38]; cited from earlier work
# HeLa cells = assay: Annexin V – Propidium Iodide flow cytometry cell death assay; type: cell-based
# HeLa-H2B-GFP cells [2] = assay: Immunofluorescence of PLK1 centrosomal localization after QQ transfection; details: for fluorescence intensity of PLK1 staining at centrosomes: PBS control 51.2, QQ control 49.2
# PBD = details: read-out: Kd for the PBD; ref [19]; cited from earlier work
molecule,measurement,setting,value
"CC(C)C[C@H](NC(=O)[C@@H]1CCCN1C(=O)CN)C(=O)N[C@@H](C)C(=O)N[C@H](C(=O)N[C@@H](CO)C(=O)N[C@H](C(=O)N1CCC[C@H]1C(=O)N[C@@H](CCCCN)C(=O)N[C@@H](CC(N)=O)C(=O)NCC(=O)O)[C@@H](C)OP(=O)(O)O)[C@@H](C)O [PLK3 ligand, GPLATS[pT]PKNG, reference compound] (H-GPLATS[pT]PKNG-OH)",IC50,PLK3 PBD (335–646),6.5 µM
"O=c1c(O)cccc2cc(O)c(O)c(O)c12 [PPG, purpurogalin, reference compound]",induction of aberrant mitoses in words,HeLa-H2B-GFP cells [1]; data not shown,very few aberrant mitoses
same,inhibition of PLK1 catalytic activity in vitro,PLK1,neither PPG nor Poloxin inhibit PLK1 catalytic activity
"CC(C)C[C@H](NC(=O)CNC(=O)[C@H](CC(N)=O)NC(=O)[C@@H]1CCCN1C(=O)[C@@H](NC(=O)[C@H](CO)NC(=O)[C@H](CS)NC(=O)[C@H](CC(C)C)NC(=O)[C@@H](N)CC(C)C)[C@@H](C)OP(=O)(O)O)C(=O)O [compound 292, LLCS[pT]PNGL] (H-LLCS[pT]PNGL-OH)",aberrant prometaphase/metaphase cells,HeLa-H2B-GFP cells [1]; 30 µM dose,25%
same,induction of apoptosis in words,"HeLa cells; 30 µM, relative to the controls",did not induce significant levels of apoptosis
same,fluorescence intensity of PLK1 staining at centrosomes,HeLa-H2B-GFP cells [2]; concentration not given,45 arbitrary fluorescence units
"CC(=O)N1CCC[C@H]1C(=O)N[C@@H](CC(C)C)C(=O)N[C@@H](Cc1c[nH]cn1)C(=O)N[C@@H](CO)C(=O)N[C@H](C(=O)N[C@@H](C)C(=O)O)[C@@H](C)OP(=O)(O)O [compound 5743, Ac-PLHS[pT]A] (Ac-PLHS[pT]A-OH)",aberrant prometaphase/metaphase cells,HeLa-H2B-GFP cells [1]; 10 µM dose,32%
same,aberrant prometaphase/metaphase cells,HeLa-H2B-GFP cells [1]; 30 µM dose,40.3%
same,"Aberrant mitoses, @ 24hr, 30 µM","HeLa-H2B-GFP cells [1]; HeLa-H2B-GFP cells, QQ transfected, 24 hr, 30 µM",40.3%
same,decrease in percentage of viable cells,"HeLa cells; 30 µM, 24 hours post-treatment",30%
same,"Apoptosis @ 24hr, 30 µM","HeLa cells; HeLa cells, QQ transfected, 24 hr",34.0%
same,inhibition at 600 µM,PLK3 PBD (335–646); read-out: inhibition of PLK3 PBD binding,31%
same,statistical significance of decrease in PLK1 centrosomal fluorescent intensity,HeLa-H2B-GFP cells [2],Statistically significant decreases
same,fluorescence intensity of PLK1 staining at centrosomes,HeLa-H2B-GFP cells [2]; 30 μM,33 arbitrary fluorescence units
LHSpTAI,Kd,PBD,0.25 µM
